The record followed here is patent US8129544B2, “1-substituted-4-nitroimidazole compound and method for preparing the same” (Otsuka Pharmaceutical Co., Ltd., priority 2002, dated 2012).

One may read the melting point as the temperature of the solid-liquid transition.

For data set [1], the system named is Mycobacterium tuberculosis H37RV. Nature of the data set: Antibiotic test by using an agar plate dilution method. Format: cell-based. Conditions: 336 h, Culture medium 7H11, inoculum about 10^6 CFU/ml (5 μl), cultivated at 37° C. for 14 days, read-out: Minimum inhibitory concentration.

Converted amounts (≈) assume the structure as drawn.

The molecule `C[C@]1(Cn2cc([N+](=O)[O-])nc2Br)CO1` gave a melting point of 93 to 94 °C.

As for `C[C@]1(CN2CCN(c3ccc(OC(F)(F)F)cc3)CC2)Cn2cc([N+](=O)[O-])nc2O1` [Reference Example 7, (S)-2-[4-(4-trifluoromethoxyphenyl)piperazin-1-ylmethyl]-2-methyl-6-nitro-2,3-dihydroimidazo[2,1-b]oxazole], the melting point fell in the range of 129 to 130 °C. In addition, the MIC in data set [1] came to 0.024 µg/mL (≈ 0.0562 µM).

`C[C@]1(Cn2cc([N+](=O)[O-])nc2Cl)CO1` displayed a melting point of 65.5 to 67 °C.

On to `C[C@@]1(Cn2cc([N+](=O)[O-])nc2Br)CO1`, for which the melting point lay within 93 to 94 °C.
